Data from patent US5118669A, “Peptides and intermediates therefor useful as antiallergic agents, vasodilators and immunoregulators” (Hitachi Chemical Co., Ltd., priority 1989, dated 1992).

Experiments:
[1] = tested on: intraperitoneal mast cells of the rats; assay: Inhibitory activity on histamine release from passively sensitized rat mast cells; format: cell-based; conditions: for inhibitory activity on histamine release: at a concentration of 10^-5 M or higher, FIG. 5-7; for potency of histamine release inhibition compared with H-Asp-Ser-Asp-Pro-Arg-OH: versus comparative drug H-Asp-Ser-Asp-Pro-Arg-OH; for potency of histamine release inhibition compared with cromoglycate: versus cromoglycate
Protocol: Male Wistar rats weighing 300-350 g were passively sensitized, and intraperitoneal mast cells of the rats were employed for the test. Rat antiserum used in the passive sensitization was prepared in accordance with the method of Mota [Immunology, 7, p. 681 (1964)] and the method of Hamaoka [J. Immunology, 113, p. 958 (1974)]. Male Wistar rats (weighing 200-250 g) each were injected ovalbumin (10 mg/kg) in a volume of 5 ml/kg intramuscularly on both thighs and simultaneously 2×10^10 cells of killed Bordetella pertussis were intraperitoneally administered to immunize the animal. Blood was drawn from the animal under ether anesthesia via the abdominal aorta on day 12 of the initial sensitization,from which antiserum was separated. The antiserum was lyophilized and stored at -20° C. Titer of the antiserum was assayed by the 48-hour rat PCA reaction. […] The anti-albumin IgE serum of the rat was two fold diluted, and 1 ml of the diluted serum was intraperitoneally administered to sensitize the animal. The rat was killed by blooding 48 hours after the sensitization, and 15 ml of a phosphate buffered saline (NaCl 8 g, KCl 0.2 g, Na2 HPO4.12H2 O 2.88 g, KH2 PO4 0.2 g, EDTA.2Na 0.2 g and bovine serum albumin 1 g, dissolved in purified water to make 1 liter, pH 7.4 (called PBS(-) hereinbelow) was intraperitoneally injected. The rat was then given light abdominal massage for about 2 min. and subjected to laparotomy to collect cells in the abdominal cavity. The cell suspension was centrifuged (1,000 rpm, 10 min.) and then resuspended in PBS(-). The PBS(-) suspension was overlayered on gum arabic density (specific gravity 1.075) followed by centrifugal separation (2,500 rpm, 10 min.). Deposited cells were washed with PBS(-) and suspended in fresh PBS(+)[a solution in which the EDTA 2Na in PBS(-) is replaced by 0.1 g of CaCl2, called PBS(+)] and adjusted to 1×10^5 cells/ml. The cell suspension was divided into silicone-treated test tubes in a volume of 0.8 ml/tube, which were then preincubated at 37° C. for 10 min. In the cell suspension-containing test tube was placed 0.1 ml of a test solution from various solutions diluted with PBS(+) followed by incubation at 37° C. for 15 min. To the test tube was then added 0.1 ml of a mixed solution of ovalbumin antigen (final concentration 1 mg/ml) and phosphatidyl-L-serine (final concentration 100 μm/ml) followed by incubation for additional 15 min. to release histamine. For cromoglycate, one of the comparative drugs, the drug was added 30 sec. prior to the addition of the antigen, and incubation was then made for additional 15 min. The reaction was terminated by addition of 1 ml of ice-cooled PBS(+), and the reaction mixture was centrifuged at 2,500 rpm for 10 min. To 2 ml of the supernatant was added 1 ml of a 4% solution of perchloric acid, and the mixture was assayed for free histamine. For the assay of total histamine, a sample was prepared by placing 0.8 ml of a suspension of untreated mast cells in boiling water for 10 min. followed by addition of 4% perchloric acid.
Amount of histamine in the sample was assayed by fluorimetry, and percent histamine release (%) was calculated by the equation [formula]

[2] = tested on: thoracic aorta of male rabbits contracted with potassium chloride; assay: Vasodilating action on aortic spiral strip contracted with potassium chloride; design: species or system rabbit; conditions: potassium chloride contraction
Protocol: (§1) The thoracic aorta of male rabbits weighing 2.5-3 kg was excised and aortic specimens of spiral strip 25-30 mm in length were prepared. […] The specimen was cumulatively administered with H-Asp-Gly-Lys-OH, H Ser-Asp-Gly-Lys-OH, or H-Asp-Ser-Asp-Gly-Lys-OH or H-Ala-Asp-Ser-Asp-Gly-Lys-OH, and relaxation reaction of the blood vessel was observed. As comparative drug were employed nitroprusside (sodium salt) and verapamil.

[3] = tested on: thoracic aorta of male rabbits contracted with norepinephrine; assay: Vasodilating action on aortic spiral strip contracted with norepinephrine; design: species or system rabbit; conditions: norepinephrine contraction
Protocol: as §1

[4] = tested on: lymphocytes (mononuclear cells from blood of a healthy adult); assay: Blast formation of lymphocytes stimulated with various lectins (3H-thymidine uptake); format: cell-based, human (healthy adult); conditions: for uptake of 3H-thymine by the lymphocytes stimulated with a lectin: particularly Con-A; for uptake of 3H-thymine by the lymphocytes stimulated with a lectin / influence upon uptake of 3H-thymine by lymphocytes in the absence of a mitogen: summary of Tables 3-6; for influence upon uptake of 3H-thymine by lymphocytes in the absence of a mitogen: no mitogen
Protocol: Mononuclear cells were collected by the density centrifugal method from blood of a healthy adult drawn in the presence of heparin and suspended in an RPMI-1640 culture medium (manufactured by Gibco) containing 10% by volume of bovine fetus serum (called FBS, manufactured by Dainihon Seiyaku). The suspension, adjusted to a concentration of 1×10^6 cells/ml, was divided into a 96-well Falcon microplate (manufactured by Becton Dickinson) in a volume of 100 μl/well. Then, a lectin, 1 μg/ml of PHA (phytohemagglutinin), 10 μg/ml of Con-A (concanavalin A) or 15 μg/ml of PWM (pokeweed mitogen) and one of the captioned peptides at a predetermined concentration were added followed by addition of a 10% FBS containing RPMI-1640 medium to a final liquid volume of 200 μl. Cultivation was made in a 5% by volume CO2 incubator at 37° C. for 72 hours, and 24 hours before completion of the cultivation 5 μCi of ^3 H-thymidine was added. The cells were recovered by a cell harvester (manufactured by Bio-Lab), and uptake of the ^3 H-thymidine was measured by a scintillation counter. Results of the measurement are shown in Table 3-Table 6 wherein figures indicate mean count (cpm)±standard error.

IL-1 = assay: Productivity of humoral factors by lymphocytes: IL-1; format: cell-based, human (healthy adult); conditions: for IL-1: cultivation for a week, control 7.1; for production of IL-1: summary of Table 7
Protocol: (§2) Mononuclear cells separated by the density centrifugal method from blood of a healthy adult drawn in the presence of heparin were suspended in an RPMI-1640 culture medium containing 10% by volume of FBS. The suspension was divided into culture tubes (Falcon 2054) each at a concentration of 1×10^6 cells/ml, to which the captioned peptides were respectively added. Cultivation was made in an incubator for a week. After completion of the cultivation, the culture was centrifuged (1,500 rpm, 10 min.), and the supernatant collected and assayed for humoral factors. Interleukin 1 (IL-1) and tumor-nectrotizing factors were measured, respectively by a IL-1 radioimmunoassay kit (manufactured by Amersham International) and a TNF radioimmunoassay kit (manufactured by Medgenix). Measurement of interleukin 6 (IL-6) was made by the enzyme immunoassay method (ELISA) using IL-6 antibody (manufactured by Genzyme). Results of the measurements are shown in Table 7 wherein figures represent mean value±standard error.

IL-6 = assay: Productivity of humoral factors by lymphocytes: IL-6; format: cell-based, human (healthy adult); conditions: for IL-6: cultivation for a week, control 270; for production of IL-6: summary of Table 7
Protocol: as §2

TNF = assay: Productivity of humoral factors by lymphocytes: TNF; format: cell-based, human (healthy adult); conditions: for TNF: cultivation for a week, control 2,020; for production of TNF: summary of Table 7
Protocol: as §2

[5] = Con-A (10 μg/ml), peptide 10^-6 M, control 37,800
[6] = Con-A (10 μg/ml), peptide 10^-8 M, control 37,800
[7] = PHA (1 μg/ml), peptide 10^-6 M, control 69,600
[8] = PHA (1 μg/ml), peptide 10^-8 M, control 69,600
[9] = PWM (15 μg/ml), peptide 10^-6 M, control 13,600
[10] = PWM (15 μg/ml), peptide 10^-8 M, control 13,600
[11] = mitogen None, peptide 10^-6 M, control 1,090
[12] = mitogen None, peptide 10^-8 M, control 1,090

## H-Asp-Gly-Lys-OH [DGK]
[1]
  inhibitory activity on histamine release: clear inhibitory activity
  potency of histamine release inhibition compared with H-Asp-Ser-Asp-Pro-Arg-OH: higher
  potency of histamine release inhibition compared with cromoglycate: nearly equal to or higher
[2]; compound 10^-4 M
  Percent relaxation: 11.2%
[2]; compound 10^-5 M
  Percent relaxation: 5.6%
[2]; compound 10^-6 M
  Percent relaxation: 0%
[2]; compound 10^-7 M
  Percent relaxation: 0%
[2]; compound 10^-8 M
  Percent relaxation: 0%
[3]; compound 10^-4 M
  Percent relaxation: 40.3%
[3]; compound 10^-5 M
  Percent relaxation: 9.3%
[3]; compound 10^-6 M
  Percent relaxation: 6.6%
[3]; compound 10^-7 M
  Percent relaxation: 0%
[3]; compound 10^-8 M
  Percent relaxation: 0%
[4]; [5]
  Uptake of 3H-thymidine by lymphocytes: 16,700 cpm
[4]; [6]
  Uptake of 3H-thymidine by lymphocytes: 20,000 cpm
[4]; [7]
  Uptake of 3H-thymidine by lymphocytes: 62,500 cpm
[4]; [8]
  Uptake of 3H-thymidine by lymphocytes: 62,700 cpm
[4]; [9]
  Uptake of 3H-thymidine by lymphocytes: 9,590 cpm
[4]; [10]
  Uptake of 3H-thymidine by lymphocytes: 11,500 cpm
[4]
  uptake of 3H-thymine by the lymphocytes stimulated with a lectin: strongly inhibit
  influence upon uptake of 3H-thymine by lymphocytes in the absence of a mitogen: little influence
[4]; [11]
  Uptake of 3H-thymidine by lymphocytes: 925 cpm
[4]; [12]
  Uptake of 3H-thymidine by lymphocytes: 1,120 cpm
IL-1; additive 10^-6 M
  IL-1: 9.5 fM/ml
IL-1; additive 10^-8 M
  IL-1: 7.1 fM/ml
IL-1
  production of IL-1: promote production
IL-6; additive 10^-6 M
  IL-6: 440 U/ml
IL-6; additive 10^-8 M
  IL-6: 400 U/ml
IL-6
  production of IL-6: promote production
TNF; additive 10^-6 M
  TNF: 4,730 pg/ml
TNF; additive 10^-8 M
  TNF: 4,110 pg/ml
TNF
  production of TNF: promote production

## H-Ser-Asp-Gly-Lys-OH (H-SDGK-OH) [tetrapeptide]
[1]
  inhibitory activity on histamine release: clear inhibitory activity
  potency of histamine release inhibition compared with H-Asp-Ser-Asp-Pro-Arg-OH: higher
  potency of histamine release inhibition compared with cromoglycate: nearly equal to or higher
[2]; compound 10^-4 M
  Percent relaxation: 18.6%
[2]; compound 10^-5 M
  Percent relaxation: 7.2%
[2]; compound 10^-6 M
  Percent relaxation: 0%
[2]; compound 10^-7 M
  Percent relaxation: 0%
[2]; compound 10^-8 M
  Percent relaxation: 0%
[3]; compound 10^-4 M
  Percent relaxation: 52.6%
[3]; compound 10^-5 M
  Percent relaxation: 25.0%
[3]; compound 10^-6 M
  Percent relaxation: 17.7%
[3]; compound 10^-7 M
  Percent relaxation: 9.1%
[3]; compound 10^-8 M
  Percent relaxation: 1.7%
[4]; [5]
  Uptake of 3H-thymidine by lymphocytes: 24,000 cpm
[4]; [6]
  Uptake of 3H-thymidine by lymphocytes: 24,200 cpm
[4]; [7]
  Uptake of 3H-thymidine by lymphocytes: 59,000 cpm
[4]; [8]
  Uptake of 3H-thymidine by lymphocytes: 62,100 cpm
[4]; [9]
  Uptake of 3H-thymidine by lymphocytes: 9,000 cpm
[4]; [10]
  Uptake of 3H-thymidine by lymphocytes: 10,000 cpm
[4]
  uptake of 3H-thymine by the lymphocytes stimulated with a lectin: strongly inhibit
  influence upon uptake of 3H-thymine by lymphocytes in the absence of a mitogen: little influence
[4]; [11]
  Uptake of 3H-thymidine by lymphocytes: 911 cpm
[4]; [12]
  Uptake of 3H-thymidine by lymphocytes: 1,436 cpm
IL-1; additive 10^-6 M
  IL-1: 11.2 fM/ml
IL-1; additive 10^-8 M
  IL-1: 10.7 fM/ml
IL-1
  production of IL-1: promote production
IL-6; additive 10^-6 M
  IL-6: 280 U/ml
IL-6; additive 10^-8 M
  IL-6: 350 U/ml
IL-6
  production of IL-6: promote production
TNF; additive 10^-6 M
  TNF: 4,260 pg/ml
TNF; additive 10^-8 M
  TNF: 3,620 pg/ml
TNF
  production of TNF: promote production
